This note sets out measurements from ChEMBL document CHEMBL4418499, “Inhibitors of trim33 and methods of use” (2018).

Assay [1] deals with T1, E3 ubiquitin-protein ligase TRIM33 (Homo sapiens, UniProt Q9UPN9).
T1 sequence (Q9UPN9 whole entry): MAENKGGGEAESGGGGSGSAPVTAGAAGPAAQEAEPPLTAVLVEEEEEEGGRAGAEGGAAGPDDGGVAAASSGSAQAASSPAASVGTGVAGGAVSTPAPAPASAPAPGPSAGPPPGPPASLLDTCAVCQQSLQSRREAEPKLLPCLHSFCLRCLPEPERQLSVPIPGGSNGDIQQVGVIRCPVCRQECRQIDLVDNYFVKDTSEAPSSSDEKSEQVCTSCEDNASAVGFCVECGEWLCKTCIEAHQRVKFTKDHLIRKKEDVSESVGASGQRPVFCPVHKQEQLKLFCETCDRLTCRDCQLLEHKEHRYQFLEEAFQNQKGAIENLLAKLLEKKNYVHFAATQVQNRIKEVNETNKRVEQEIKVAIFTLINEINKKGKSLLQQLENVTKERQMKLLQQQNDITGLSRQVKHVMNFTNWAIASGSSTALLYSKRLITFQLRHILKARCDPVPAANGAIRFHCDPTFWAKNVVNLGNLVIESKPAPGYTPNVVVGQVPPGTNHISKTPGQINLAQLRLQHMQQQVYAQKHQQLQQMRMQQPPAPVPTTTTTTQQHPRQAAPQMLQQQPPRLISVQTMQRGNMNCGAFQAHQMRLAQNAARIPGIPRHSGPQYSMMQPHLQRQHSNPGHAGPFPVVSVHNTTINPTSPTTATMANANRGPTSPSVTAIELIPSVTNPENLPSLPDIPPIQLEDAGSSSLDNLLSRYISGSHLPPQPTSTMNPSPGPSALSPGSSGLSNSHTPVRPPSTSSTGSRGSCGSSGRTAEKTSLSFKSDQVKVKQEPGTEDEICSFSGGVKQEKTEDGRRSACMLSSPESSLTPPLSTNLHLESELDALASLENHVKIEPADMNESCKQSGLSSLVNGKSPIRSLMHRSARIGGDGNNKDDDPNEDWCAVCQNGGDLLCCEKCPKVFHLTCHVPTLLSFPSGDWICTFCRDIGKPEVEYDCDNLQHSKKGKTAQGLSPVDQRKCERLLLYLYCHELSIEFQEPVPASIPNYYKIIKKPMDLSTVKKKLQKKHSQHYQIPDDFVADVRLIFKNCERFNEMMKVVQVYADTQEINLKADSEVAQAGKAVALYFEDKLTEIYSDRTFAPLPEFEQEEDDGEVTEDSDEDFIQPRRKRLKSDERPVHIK
In words: Inhibition of recombinant TRIM33 PHD bromodomain (unknown origin) using biotinylated H3 peptide (H3K9me3K18ac) by AlphaScreen assay.

Assay [2] is filed under the species Homo sapiens. In words: Selectivity index, ratio of IC50 for recombinant TRIM24 (unknown origin) to IC50 for recombinant TRIM33 PHD bromodomain (unknown origin).
Assay [3] deals with T2, Transcription intermediary factor 1-alpha (Homo sapiens, UniProt O15164).
T2 sequence (O15164 whole entry): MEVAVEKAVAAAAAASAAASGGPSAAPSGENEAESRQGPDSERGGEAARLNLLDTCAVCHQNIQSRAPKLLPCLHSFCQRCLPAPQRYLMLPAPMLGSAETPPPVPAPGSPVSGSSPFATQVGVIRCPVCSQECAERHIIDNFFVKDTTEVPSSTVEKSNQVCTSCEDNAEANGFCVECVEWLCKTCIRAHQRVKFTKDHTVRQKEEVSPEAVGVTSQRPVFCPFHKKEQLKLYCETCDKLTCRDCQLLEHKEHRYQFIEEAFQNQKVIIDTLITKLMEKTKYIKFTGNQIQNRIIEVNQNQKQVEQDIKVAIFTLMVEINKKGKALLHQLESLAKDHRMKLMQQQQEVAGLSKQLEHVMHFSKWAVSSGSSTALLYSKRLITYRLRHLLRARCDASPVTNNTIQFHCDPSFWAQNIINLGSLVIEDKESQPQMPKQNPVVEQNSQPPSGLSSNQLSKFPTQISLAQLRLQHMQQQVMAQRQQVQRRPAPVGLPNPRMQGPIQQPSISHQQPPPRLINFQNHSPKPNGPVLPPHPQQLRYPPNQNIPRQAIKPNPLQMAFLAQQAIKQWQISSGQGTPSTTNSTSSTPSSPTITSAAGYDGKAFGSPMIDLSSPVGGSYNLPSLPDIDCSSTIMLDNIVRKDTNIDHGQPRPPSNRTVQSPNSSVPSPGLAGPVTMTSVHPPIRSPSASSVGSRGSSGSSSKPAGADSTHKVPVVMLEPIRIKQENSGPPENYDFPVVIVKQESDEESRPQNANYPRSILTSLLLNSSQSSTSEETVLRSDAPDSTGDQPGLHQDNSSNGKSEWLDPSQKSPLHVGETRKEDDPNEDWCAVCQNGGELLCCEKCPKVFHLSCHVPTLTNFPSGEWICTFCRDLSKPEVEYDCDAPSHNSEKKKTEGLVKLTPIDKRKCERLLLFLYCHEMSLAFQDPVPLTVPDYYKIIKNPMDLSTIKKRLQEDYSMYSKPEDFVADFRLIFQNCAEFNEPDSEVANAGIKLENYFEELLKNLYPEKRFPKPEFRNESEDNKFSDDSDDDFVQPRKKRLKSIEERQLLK
In words: Inhibition of recombinant TRIM24 (unknown origin) using biotinylated H3 peptide (H3K9me3K18ac) by AlphaScreen assay. On the technique in general: Bead proximity is the source of the signal in Alpha formats.

Broadly, the IC50 is the point on the concentration scale where inhibition reaches its midpoint. Regarding `COc1ccc(CCNc2c(-c3ccc4nccn4c3)nc3ccc(Br)cn23)cc1OC`, the IC50 in assay [1] worked out at 20.4 µM; in assay [3], 283 µM. Further, the Ratio IC50 in assay [2] came to 13.9.

On to `COc1ccc(Nc2c(-c3nc[nH]c3C)nc3cnccn23)cc1`, for which the IC50 in assay [1] is 14.7 µM; in assay [3] it was 7.32 µM. Also, the Ratio IC50 in assay [2] turned out to be 0.5.

Consider `COC(=O)c1ccc2nc(-c3nc[nH]c3C)c(NCc3ccc(C#N)cc3)n2c1`, for which the IC50 was found to be 113 µM in assay [1] and 319 µM in assay [3]. Besides, the Ratio IC50 in assay [2] worked out at 2.83.

As for `COC(=O)c1ccc2nc(-c3c[nH]c(C)n3)c(NCCc3ccc(OC)c(OC)c3)n2c1`, the IC50 in assay [1] amounted to 7.17 µM; in assay [3] it was 622 µM. The Ratio IC50 in assay [2] amounted to 86.8.

Take `CCCOc1ccn2c(C(C)=O)cc(-c3nc4cnccn4c3NCCc3ccc(OC)c(OC)c3)c2c1`: the IC50 in assay [1] turned out to be 23.7 µM; in assay [3], 835 µM. Further, the Ratio IC50 in assay [2] was determined as 35.3.

In the case of `COCCNc1c(-c2c[nH]c(C)n2)nc2ccc(Br)cn12`, the IC50 was 7.88 µM in assay [1] and 243 µM in assay [3]. Besides, the Ratio IC50 in assay [2] turned out to be 30.8.

Consider `N#Cc1ccc(CNc2c(-c3ccc4nccn4c3)nc3ccc(Br)cn23)cc1`, for which the results for the IC50 in assay [1] and in assay [3] were 48.1 µM and 296 µM, respectively. For the same molecule, in assay [2], the Ratio IC50 turned out to be 6.16.

For `Cc1[nH]cnc1-c1nc2cnccn2c1NCCN1CCOCC1`, the values for the IC50 in assay [1] and in assay [3] were 71 µM and 119 µM, respectively. The Ratio IC50 in assay [2] is 1.67.

For `Cc1[nH]cnc1-c1nc2ccc(Br)cn2c1NC1CCCCC1`, the IC50 was determined as 1.03 µM in assay [1] and 8.48 µM in assay [3]. In addition, in assay [2], the Ratio IC50 stood at 8.27.

On to `Cc1nc(-c2nc3ccccn3c2NCc2ccc(C#N)cc2)c[nH]1`, for which the IC50 in assay [1] stood at 26.8 µM; in assay [3] it was 267 µM. Also, the Ratio IC50 in assay [2] came to 9.97.

Consider `CCCOc1ccn2c(C(C)=O)cc(-c3nc4cnccn4c3NCc3ccc(C#N)cc3)c2c1`, for which the IC50 in assay [1] is 66 µM; in assay [3], 819 µM. Further, the Ratio IC50 in assay [2] stood at 12.4.

Take `CCCOc1ccn2c(C(C)=O)cc(-c3nc4ccc(C(=O)OC)cn4c3Nc3ccc(OC)cc3)c2c1`: the IC50 in assay [1] was found to be 48.6 µM; in assay [3], 355 µM. The Ratio IC50 in assay [2] turned out to be 7.3.

As to `COCCNc1c(-c2ccc3nccn3c2)nc2cnccn12`, the figures for the IC50 in assay [1] and in assay [3] were 190 µM and 5450 µM, respectively. Moreover, the Ratio IC50 in assay [2] was found to be 28.6.

Consider `CCCOc1ccn2c(C(C)=O)cc(-c3nc4ccc(C(=O)OC)cn4c3NCCN3CCOCC3)c2c1`, for which the IC50 in assay [1] was found to be 95.6 µM; in assay [3] it was 1040 µM. In addition, the Ratio IC50 in assay [2] was found to be 10.9.

With `COc1ccc(Nc2c(-c3ccc4nccn4c3)nc3cnccn23)cc1`, the IC50 is 38.3 µM in assay [1] and 88.3 µM in assay [3]. In addition, in assay [2], the Ratio IC50 stood at 2.3.

For `Cc1[nH]cnc1-c1nc2ccc(Br)cn2c1NCc1ccc(C#N)cc1`, the IC50 in assay [1] was determined as 10.1 µM; in assay [3] it was 29.3 µM. Moreover, the Ratio IC50 in assay [2] came to 2.91.

On to `N#Cc1ccc(CNc2c(-c3ccc4nccn4c3)nc3ccccn23)cc1`, for which the IC50 is 87.4 µM in assay [1] and 2080 µM in assay [3]. Also, in assay [2], the Ratio IC50 came out at 23.8.

In the case of `COC(=O)c1ccc2nc(-c3c[nH]c(C)n3)c(NCCN3CCOCC3)n2c1`, the results for the IC50 in assay [1] and in assay [3] were 71.4 µM and 2870 µM, respectively. For the same molecule, the Ratio IC50 in assay [2] is 40.3.

`CCCOc1ccn2c(C(C)=O)cc(-c3nc4cnccn4c3NCCN3CCOCC3)c2c1`: the IC50 worked out at 151 µM in assay [1] and 4980 µM in assay [3]. In assay [2], the Ratio IC50 was found to be 32.9.

In the case of `COC(=O)c1ccc2nc(-c3ccc4nccn4c3)c(Nc3ccc(OC)cc3)n2c1`, the IC50 in assay [1] came out at 22.2 µM; in assay [3], 375 µM. For the same molecule, the Ratio IC50 in assay [2] worked out at 16.9.

With `CCCOc1ccn2c(C(C)=O)cc(-c3nc4cnccn4c3Nc3ccc(OC)cc3)c2c1`, the IC50 in assay [1] turned out to be 38.5 µM; in assay [3], 226 µM. In addition, the Ratio IC50 in assay [2] was 5.87.

Turning to `CCCOc1ccn2c(C(C)=O)cc(-c3nc4ccccn4c3Nc3ccc(OC)cc3)c2c1`, the 50% inhibitory concentration (IC50) in assay [1] worked out at 9.6 µM; in assay [3] it was 159 µM. In addition, the Ratio IC50 in assay [2] stood at 16.6.
